Measured values from US20260118345A1, “METHOD OF EVALUATING INTERCELLULAR INTERACTIONS IN NEUROINFLAMMATION” (FUJIFILM Corporation, priority 2023, published 2026).

Tests used:
Format in all cases: cell-based, human
NF-κB [1] = assay: NF-κB localization by immunostaining after LPS stimulation, two-dimensional three-cell-type co-culture of astrocytes, neurons and microglia; conditions: LPS 100 ng/mL, no R-7050
Description: Matrigel basement membrane matrix (Corning, 356234) diluted 120-fold with DMEM/F12 (Life technologies, 11320-033) was added to a 96-well plate at 65 μL/well and allowed to stand at 4° C. After 24 hours, the culture medium was replaced with a progenitor cell culture medium and used.
Astrocyte precursor cells (XCell Science, XCS-AP-001-1V) were seeded in a 96-well plate at a density of 5×10^4 cells/well and cultured under the conditions of 37° C. and 5% CO2. The next day, the culture medium was replaced with the differentiation-inducing culture medium and further cultured for 5 days to differentiate into astrocytes.
The neurons were produced by forcing expression of the Ngn2 gene from iPS cells (WO2014/148646A; and Zhang Y, et al., Neuron, 78:785-98, 2013), and the cells that had been frozen and stored were used. The cells that had been frozen and stored were thawed in a warm bath at 37° C., and after thawing, the cells were added to the co-culture medium and centrifuged at 600×g at room temperature for 5 minutes. After centrifugation, the supernatant was removed, the cells were suspended in 1 mL of the co-culture medium, and the number of cells was counted.
As the microglia, iPS cell-derived microglia (iCell (registered trademark) Microglia, FCDI, C1110) were used. The cells that had been frozen and stored were thawed in a warm bath at 37° C., and after thawing, the cells were added to the co-culture medium and centrifuged at 600×g at room temperature for 5 minutes. After centrifugation, the supernatant was removed, the cells were suspended in 1 mL of the co-culture medium, and the number of cells was counted.
The neurons and the microglia were mixed in a ratio of 3:1 and seeded on the astrocytes at 4×10^4 cells/well. The cells were cultured under the conditions of 37° C. and 5% CO2, and half of the culture medium was replaced three times a week.
Microglia were specifically stimulated by adding LPS (FUJIFILM Wako Pure Chemical Corporation, 124-05151) at 100 ng/mL to the two-dimensional co-culture that had been cultured for 4 weeks. The cells were fixed by treating, for 30 minutes, with a formaldehyde solution (FUJIFILM Wako Pure Chemical Corporation, 061-00416) diluted 10-fold with PBS(−) (FUJIFILM Wako Pure Chemical Corporation, 166-23555) without treatment, and at 0.5 hours, 1 hour, 3 hours, 6 hours, and 24 hours after the treatment.
In addition, in the two-dimensional co-culture that had been cultured for 19 days, LPS (FUJIFILM Wako Pure Chemical Corporation, 124-05151) was added at 100 ng/ml and R-7050 (Cayman Chemical Company, 16870), which is a TNFR1 inhibitor, was added at 10 μmol/L, and the effect of TNF-α on the intercellular interaction induced by LPS stimulation was evaluated. The cells were fixed by treating, for 30 minutes, with a formaldehyde solution (FUJIFILM Wako Pure Chemical Corporation, 061-00416) diluted 10-fold with PBS (−) (FUJIFILM Wako Pure Chemical Corporation, 166-23555) without treatment, and at 0.5 hours, 1 hour, 3 hours, 6 hours, and 24 hours after the treatment.
The fixed cells were washed with PBS (−), and blocking and permeabilization were performed by treating with a solution (1% BSA/0.2% Triton X-100) in which BSA (Sigma-Aldrich, A4161) and Triton (registered trademark) X-100 (BioVision, 2104-100) were diluted to 1% and 0.2% with PBS (−) for 30 minutes. […]

NF-κB [2] = assay: NF-κB localization after LPS stimulation, two-cell-type co-culture of nerve and astrocytes; conditions: co-culture without microglia, all time points
STAT1 [3] = assay: STAT1 localization by immunostaining after LPS stimulation, three-cell-type co-culture of neurons, astrocytes and microglia; conditions: LPS 100 ng/mL
Description: Microglia were specifically stimulated by adding LPS (FUJIFILM Wako Pure Chemical Corporation, 124-05151) at 100 ng/mL to the two-dimensional co-culture that had been cultured for 4 weeks. The cells were fixed by treating, for 30 minutes, with a formaldehyde solution (FUJIFILM Wako Pure Chemical Corporation, 061-00416) diluted 10-fold with PBS(−) (FUJIFILM Wako Pure Chemical Corporation, 166-23555) without treatment, and at 0.5 hours, 1 hour, 3 hours, 6 hours, and 24 hours after the treatment. […]
The next day, the cells were washed with PBS (−), then as a secondary antibody reaction, treated with Donkey anti-goat Alexa Fluor (registered trademark) 488 (Thermo Fisher Scientific, A11055) diluted 1000-fold, Donkey anti-rabbit Alexa Fluor (registered trademark) 594 (Thermo Fisher Scientific, A32754) diluted 1000-fold, and Hoechst (registered trademark) 33342 (Dojindo, 346-07951) diluted 1000-fold as a secondary antibody reaction, and allowed to stand at room temperature for 60 minutes. After washing with PBS (−), the cells were imaged with a fluorescence microscope (Nikon, ECLIPSE Ti) to acquire an image. […]

STAT1 [4] = assay: STAT1 localization after LPS stimulation, two-cell-type co-culture of nerve and astrocytes; conditions: co-culture without microglia, all time points
NF-κB [5] = assay: NF-κB localization after LPS stimulation, three-cell-type co-culture containing about 0.11% microglia; conditions: proportion of microglia about 0.11%
Description: The amount of cells required for the activated microglia to affect other cells was examined. Two-dimensional three-cell-type co-cultures of astrocytes, neurons, and microglia in which the proportion of the microglia was about 11%, 1.1%, and 0.11% were produced by the same method as in <1> of Test Example 1. In addition, the cells were subjected to LPS stimulation and fixed by the same method as in <1> of Test Example 1. Furthermore, the localization of NF-κB was evaluated by the same method as in <1> of Test Example 1.

[6] = 3 hours and 6 hours after the LPS treatment

Substance: lipopolysaccharide [LPS]
- nuclear translocation of NF-κB (NF-κB [1]; 0.5 hours and 1 hours after the LPS treatment): only some cells
- nuclear translocation of NF-κB (NF-κB [1]; [6]): many cells
- nuclear translocation of NF-κB (NF-κB [2]): not observed at any time
- STAT1 localized in the nucleus (STAT1 [3]; 1 hour and 3 hours after the LPS stimulation): some cells
- STAT1 localized in the nucleus (STAT1 [3]; 6 hours after the stimulation): many cells
- nuclear translocation of STAT1 (STAT1 [4]): not observed at any time
- nuclear translocation of NF-κB (NF-κB [5]; 1 hour after the LPS treatment): only some cells
- nuclear translocation of NF-κB (NF-κB [5]; [6]): many cells
